{"source": "ChEMBL document CHEMBL1158571", "about": "“Antiplasmodial lanostanes from the Ganoderma lucidum mushroom” (J Nat Prod, 2010)", "note": "Activity calls are given as the source filed them. The rule behind the calls is not given here."}
{"system": "Plasmodium falciparum", "assay": "Antiplasmodial activity against Plasmodium falciparum", "format": "functional, organism-based", "units": {"IC50": "µM"}}
{"smiles": "C/C(C=O)=C/CC[C@@H](C)[C@H]1C[C@H](O)[C@@]2(C)C3=CC[C@H]4C(C)(C)C(=O)CC[C@]4(C)C3=CC[C@]12C", "note": "[GANODERIC ALDEHYDE TR]", "IC50": 6}
{"smiles": "C/C(=C/CC[C@@H](C)[C@H]1CC[C@@]2(C)C3=CC[C@H]4C(C)(C)C(=O)CC[C@]4(C)C3=CC[C@]12C)C(=O)O", "note": "[GANODERIC ACID S]", "IC50": 11}
{"smiles": "C/C(=C\\CC[C@@H](C)[C@H]1C[C@@H](O)[C@@]2(C)C3=CC[C@H]4C(C)(C)C(=O)CC[C@]4(C)C3=CC[C@]12C)C(=O)O", "note": "[GANODERIC ACID TR 1]", "IC50": 18}
{"smiles": "C[C@H](CC[C@@H](O)C(C)(C)O)[C@H]1CC[C@@]2(C)C3=CC[C@H]4C(C)(C)C(=O)CC[C@]4(C)C3=CC[C@]12C", "note": "[GANODERMANONDIOL]", "IC50": 13}
{"smiles": "C/C(=C/CC[C@@H](C)[C@H]1C[C@H](O)[C@@]2(C)C3=CC[C@H]4C(C)(C)C(=O)CC[C@]4(C)C3=CC[C@]12C)C(=O)O", "note": "[GANODERIC ACID TR]", "IC50": 20}
{"smiles": "C/C(=C/C(O)C[C@@H](C)[C@H]1CC[C@@]2(C)C3=CC[C@H]4C(C)(C)C(O)CC[C@]4(C)C3=CC[C@]12C)C(=O)O", "note": "(stereo partly drawn)", "IC50": 11}
{"system": "Plasmodium falciparum", "assay": "Antiplasmodial activity against Plasmodium falciparum at 20 uM", "format": "functional, organism-based"}
{"smiles": "CC(C)=CCC/C(C)=C/CCC(C(=O)O)c1cc2cc(O)ccc2o1", "note": "(stereo not drawn)", "Activity": "inactive"}
{"smiles": "C/C(=C/CC[C@@H](C)[C@H]1CC[C@@]2(C)C3=C(CC[C@]12C)[C@@]1(C)CCC(=O)C(C)(C)[C@@H]1CC3=O)C(=O)O", "Activity": "inactive"}
